Reference: paper PMC8564113, “Erianin: A Direct NLRP3 Inhibitor With Remarkable Anti-Inflammatory Activity” (Frontiers in Immunology, 2021)

Biological target: T1, NLRP3 (Homo sapiens, UniProt Q96P20)
T1 construct: purified human GST-NLRP3
Test: microscale thermophoresis with purified GST-NLRP3; also biotin-Eri pull-down and ATPase inhibition
Assay type: binding

T1 sequence (Q96P20 whole entry): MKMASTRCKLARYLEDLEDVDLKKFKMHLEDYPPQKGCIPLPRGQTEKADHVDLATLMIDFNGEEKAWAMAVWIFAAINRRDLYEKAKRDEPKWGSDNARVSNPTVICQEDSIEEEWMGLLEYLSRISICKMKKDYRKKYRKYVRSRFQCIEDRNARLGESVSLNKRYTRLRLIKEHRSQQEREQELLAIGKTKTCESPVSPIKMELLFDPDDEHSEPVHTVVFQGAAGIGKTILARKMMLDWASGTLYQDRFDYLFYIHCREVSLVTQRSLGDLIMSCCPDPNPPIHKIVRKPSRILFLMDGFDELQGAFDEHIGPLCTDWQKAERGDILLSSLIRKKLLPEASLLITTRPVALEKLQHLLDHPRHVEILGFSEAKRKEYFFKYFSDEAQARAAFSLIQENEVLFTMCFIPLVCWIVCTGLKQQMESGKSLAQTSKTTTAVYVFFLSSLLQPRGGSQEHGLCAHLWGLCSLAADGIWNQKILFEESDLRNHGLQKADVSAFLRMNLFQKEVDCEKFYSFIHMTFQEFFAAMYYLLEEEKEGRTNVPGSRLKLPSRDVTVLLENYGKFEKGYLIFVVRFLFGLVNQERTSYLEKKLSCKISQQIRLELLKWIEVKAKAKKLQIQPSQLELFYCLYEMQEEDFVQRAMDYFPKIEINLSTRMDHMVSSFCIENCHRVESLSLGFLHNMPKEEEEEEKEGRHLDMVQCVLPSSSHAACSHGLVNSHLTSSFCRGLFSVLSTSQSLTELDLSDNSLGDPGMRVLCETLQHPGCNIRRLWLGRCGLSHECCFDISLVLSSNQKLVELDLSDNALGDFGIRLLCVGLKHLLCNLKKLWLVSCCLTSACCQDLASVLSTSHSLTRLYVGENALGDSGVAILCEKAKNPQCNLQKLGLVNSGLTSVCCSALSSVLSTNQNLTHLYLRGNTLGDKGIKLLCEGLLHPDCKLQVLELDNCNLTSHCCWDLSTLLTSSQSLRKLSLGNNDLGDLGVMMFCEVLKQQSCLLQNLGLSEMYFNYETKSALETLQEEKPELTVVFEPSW

## COc1ccc(CCc2cc(OC)c(OC)c(OC)c2)cc1O [Eri, Erianin]
  Kd: ~50 nM
